According to patent US20250049885A1, “HYALURONIC ACID BINDING PEPTIDE AS A THERAPEUTIC TO CONTROL FIBROBLAST ACTIVATION AND FIBROTIC CAPSULE FORMATION” (SOUTH DAKOTA BOARD OF REGENTS, priority 2023, published 2025):
Ends that are not written are not given here.

Assays:
[1] = system: Col1 fibers deposited by dermal fibroblasts; experiment: Type I Collagen immunostaining and fiber analysis (CT-Fire); type: cell-based, human; details: p-value<0.01
From the text: FIGS. 5A-G show Type I Collagen immunostaining results. FIG. 5A is a color cell culture stain: Fluorescent images of Col1 at 20× magnification. The scale bar represents 100 μm. FIG. 5B is a color image showing CT-Fire overlays of Col1 fibers from the above images, where different fiber characteristics are shown via different coloration. FIG. 5C is a graphical representation of the distribution of the number of Col1 fibers in each treatment group. FIG. 5D is a graphical representation of the distribution of Col1 fiber lengths in each treatment group. There is a notable difference between the APTMS group and the Untreated and HABP groups. FIG. 5E is a graphical representation of the measurement of fiber straightness. […] The closer the value is to one, the straighter individual fibers within the treatment groups are. FIG. 5F is a graphical representation of the Col1 fiber width comparison between treatment groups. […]
Immunostaining was done using α-SMA (D4K9N, Cell Signal) and Type I collagen primary antibodies. […] After this point, all further staining was conducted in the dark to preserve fluorescence. […]
Immunostaining for Type I Collagen (Col1) was done to determine the impact of the HABP surface treatment on ECM formation. […] Col1 fibers were analyzed and the analysis found significant differences in fiber angle, straightness, and width.

[2] = system: primary dermal fibroblasts; experiment: Cell morphology and alignment on functionalized surfaces (brightfield); type: cell-based, human; details: vs cells on the other surface groups
Experimental: FIGS. 3A-B depicts primary dermal fibroblasts seeded at 50.000 cells/154 mm^2 and incubated for 10 days on HABP and Scrambled HABP functionalized surfaces. APTMS surfaces were treated with 2% APTMS only and Untreated surfaces had no treatment other than PBS rinse. […] Decellularization occurred on Day 11. (Representative of average and standard deviation; N=3; scale bar represents 100 μm). […] (Representative of average and standard deviation; N=6).
APTMS functionalized and untreated experimental groups were established.
Untreated and HABP functionalized surfaces did have some fibroblasts with higher levels of alignment, but the majority of fibroblast cells in those groups maintained a similar distribution of alignment to the APTMS cultures.

[3] = Live/Dead fluorescent staining of fibroblasts cultured on functionalized surfaces; type: cell-based, human; details: human; fibroblasts cultured on functionalized surface; read-out: Cell viability (Live/Dead)
Experimental: (§1) FIGS. 2A-C depict assessment of the cytocompatibility of the peptide treated surfaces using Live/Dead and PrestoBlue assays. Presto Blue assay is a measure of cellular metabolic activity. FIG. 2A is a color image of a cell culture: Calcein-AM (green) and Propidium Iodide (red) were used to stain for live and dead cells respectively.
(§2) Surface functionalization was done with 2% APTMS and 1 mM HABP. 2% APTMS (in 2-propanol) was treated on the surface for 6 hours in a wet chamber at room temperature. Following the end of the culture period, three washes with DI H2O were used to remove the residual APTMS. A 1 mM HABP in DI H2O solution was added to the surface and left overnight at 4° C. in the wet chamber. After the peptide treatment is completed, the surfaces were rinsed 5 times with PBS for 5 minutes each. These functionalized surfaces were used for HA binding verification and cell seeding experiments. Two other experimental groups were established: one with only the APTMS treatment, and one with no surface treatment (Table 2).
(§3) Human primary dermal fibroblasts (HDFs) were cultured in a culture media consisting of DMEM, 10% fetal bovine serum (FBS), and 1% penicillin-streptomycin (10,000 IU/mL). The cells were rinsed with warm 1×PBS to remove any traces of FBS from the surface, and a 0.25% trypsin/EDTA treatment was used to detach the cells from the culture flask at 37° C. for 5 minutes. 4 mL of fresh media was added to the cells to inhibit the trypsin, and the suspended cells were withdrawn from the flask, counted using a hemocytometer, and added to a 15 ml centrifuge tube. The cells were centrifuged for 5 minutes at 1500 rpms, and the media was withdrawn and replaced with a calculated amount of fresh media in which the cells were resuspended. The cells were added to the functionalized MatTek surfaces, and after 6 hours, 2 mL of media containing 100 μg/mL ascorbic acid was added. The cells were cultured for 48-96 hours before further experimentation was conducted. […]

[4] = system: normal human adult primary dermal fibroblasts; experiment: as above; type: cell-based
Experimental: as §1, §2, §3

CO[Si](CCCN)(OC)OC [APTMS, 3-aminopropyltrimethoxysilane]
Col1 fiber width narrower than untreated cultures [1]: 5%
Cell morphology [2]: slightly stressed morphology

GAHWQFNALTVR [HABP, GAHWQFNALTVR]
viability [3]: 98.9%
Cell viability vs control groups (Live/Dead) ([4]; HABP vs APTMS treated and untreated surfaces): no significant difference
Cell viability (Live/Dead) ([4]; fibroblasts cultured on functionalized surface): 98.9%
